Measurements published in patent US12370143B2, “Compound or salt thereof and lipid particles” (FUJIFILM Corporation, priority 2018, dated 2025).

Experiments:
[1] = Particle size of nucleic acid lipid particles (Luc2-siRNA); type: physicochemical; details: compound/DSPC/cholesterol/DMG-PEG2000 50/10/38.5/1.5
How it was run: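 Lipid particles formed from oil phase (test lipid/DSPC/cholesterol/DMG-PEG2000, 50/10/38.5/1.5 molar, 20 mmol/L total in ethanol) micromixed 1:3 with Luc2-siRNA in pH 4 acetate buffer (19.7 μmol/L); siRNA/lipid 339 mol/mol, PBS-diluted and dialyzed. Size measured on ELS-Z2 dynamic light scattering.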

[2] = Encapsulation rate of siRNA in nucleic acid lipid particles (Luc2-siRNA); type: physicochemical; details: compound/DSPC/cholesterol/DMG-PEG2000 50/10/38.5/1.5
How it was run: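 Encapsulation rate was calculated as (total − outer-phase siRNA)/total ×100. Total siRNA was quantified spectrophotometrically after lipid-dissolving ethanol precipitation, and unencapsulated siRNA by RiboGreen in TE (ex 485/em 535 nm). The particles were test lipid/DSPC/cholesterol/DMG-PEG2000 at 50/10/38.5/1.5, formed by microfluidic mixing with Luc2-siRNA at pH 4 and dialyzed against PBS.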

[3] = system: Factor VII (FVII) protein; assay: Measurement of Factor VII (FVII) protein in mouse plasma after FVII-siRNA lipid particles; type: in vivo, C57BL6/J mice; details: 0.1 mg/kg caudal vein, plasma 24 hours after administration, PBS group = 100%
Experimental: (§1) The Factor VII (FVII) protein was measured according to the method described in Nature Biotechnology (2010) 28, 172-176. C57BL6/J mice were randomly grouped (n=3). A dispersion liquid of nucleic acid lipid particles was prepared by the same method as that in <Preparation of nucleic acid lipid particles>, except that FVII-siRNA having the sequence described in Molecular Therapy (2009) 17, p. 878 was used instead of Luc-siRNA. The dispersion liquid was administered to the caudal vein of the mice at a dosage of 0.1 mg/kg. For comparison, PBS at the same volume was administered to the caudal vein of the mice. Twenty four hours after the administration, blood was collected from the caudal vena cava, thereby obtaining plasma. The amount of FVII protein was quantified using the obtained plasma and a Biophen FVII assay kit (Aniara).
The FVII amount in the plasma sample of each individual in the PBS administration group was regarded as 100%, and the ratio of the FVII amount in the plasma sample of each individual to 100% was adopted as a measurement value.

[4] = Particle size of nucleic acid lipid particles (FVII-siRNA); type: physicochemical
Experimental: The compounds described in Table 2, L-α-distearoylphosphatidylcholine (trade name: COATSOME® MC-8080; NOF corporation), cholesterol (trade name: Choesterol HP; NIPPON FINE CHEMICAL CO., LTD.), and 1,2-dimyristoyl-rac-glycero-3-(methylpolyoxyethylene 2000) (hereinafter, called DMG-PEG2000) (trade name: SUNBRIGHT® GM-020; NOF corporation) were dissolved in ethanol at a molar ratio of 50/10/38.5/1.5 such that the total lipid concentration became 20 mmol/L, thereby obtaining an oil phase.
An aqueous nucleic acid solution obtained by dissolving 5 mg of Luc2-siRNA having the sequence described in Biomacromolecules (2013) 14, p. 3905 in 1 mL of sterile water was diluted with 10 mmol/L acetate buffer having a pH 4 such that the nucleic acid concentration became 19.7 μmol/L, thereby obtaining a water phase. Then, the water phase and the oil phase were mixed together by a micromixer (see JP5288254B) using a syringe pump such that the volume ratio of water phase:oil phase became 3:1 (final ratio of siRNA/lipid=339 (mol/mol)), and the mixed solution was diluted 2× with PBS, thereby obtaining a dispersion liquid of nucleic acid lipid particles. The dispersion liquid was dialyzed (Slide-A-Lyzer G2, MWCO: 10 kD, Thermo Fisher Scientific) using a phosphate buffered saline such that ethanol was removed, thereby obtaining nucleic acid lipid particles.
The particle size of the nucleic acid lipid particles was measured by the same method as that in <Preparation of lipid particles>.
as §1

[5] = Nucleic acid encapsulation rate of nucleic acid lipid particles (FVII-siRNA); type: physicochemical
Experimental: A 3 mol/L aqueous sodium acetate solution (30 μL) and 9 μL of glycogen were added to 60 μL of the lipid particles retaining nucleic acids, and then 1.5 mL of ethanol was added thereto such that only the nucleic acids were precipitated while the lipid was dissolved. Then, the supernatant was removed by centrifugation. After the precipitates were air-dried for 15 minutes or longer, water was added thereto such that the precipitates were redissolved, and the concentration thereof was measured using Nanodrop NF1000 (Thermo Fisher Scientific), thereby quantifying the total nucleic acid concentration.
The nucleic acid concentration was quantified using a Quant-iT RiboGreen RNA Assay Kit (Thermo Fisher Scientific) according to the protocol. First, a 20×TE buffer included in the above kit was diluted with water, thereby obtaining a 1×TE buffer. TE represents Tris/EDTA (ethylenediaminetetraacetic acid). In order to quantify only the nucleic acid in the outer water phase, the dispersion liquid of lipid particles retaining nucleic acids was diluted 10,000× with the 1×TE buffer.
The 10,000× diluted dispersion liquid of lipid particles (100 μL) was put in a 96-well plate, then 100 μL of a RiboGreen reagent (reagent included in the Quanti-iT Ribogreen RNA Assay Kit described above) diluted 2000× with the 1×TE buffer was added to a sample, and fluorescence (excitation wavelength: 485 nm, fluorescence wavelength: 535 nm) was measured using a plate reader Infinit EF200 (TECAN), thereby quantifying the nucleic acid concentration in the outer water phase.
By using the total nucleic acid concentration obtained through the above steps and the quantified nucleic acid concentration in the outer water phase, the nucleic acid encapsulation rate of the nucleic acid lipid particles was calculated according to the following Equation. Nucleic acid encapsulation rate (%)=(total nucleic acid concentration−nucleic acid concentration in outer water phase)/total nucleic acid concentration×100 The results are shown in Table 2.
as §1

Row | Structure (SMILES) | Particle size (nm) [1] [nm] | Nucleic acid encapsulation rate [2] [%] | Relative amount of FVII protein (%) [3] [%] | Particle size (nm) [4] [nm] | Nucleic acid encapsulation rate [5] [%]
1 | CCCCC/C=C\C/C=C\CCCCCCCCC(CCCCCCCC/C=C\C/C=C\CCCCC)OC(=O)OCCCN(C)C [Comparative Example 8, 3-(Dimethylamino)propyl((6Z,9Z,28Z,31Z)-heptatriaconta-6,9,28,31-tetraen-19-yl)carbonate, reference compound] | 63.1 | 59 | 58 | 63.4 | 78
2 | CCCCC/C=C\C/C=C\CCCCCCCCC(CCCCCCCC/C=C\C/C=C\CCCCC)N(C)CCN(C)C [Comparative Example 9, N1-((6Z,9Z,28Z,31Z)-heptatriaconta-6,9,28,31-tetraen-19-yl)-N1,N2,N2-trimethylethane-1,2-diamine, reference compound] | 58.4 | 84 | 44 | 60 | 71
3 | CCCCC/C=C\C/C=C\CCCCCCCCC(CCCCCCCC/C=C\C/C=C\CCCCC)OC(=O)OCCN(CCCCCC)CCN(C)C [Example 37, 2-((2-(Dimethylamino)ethyl)(hexyl)amino)ethyl((6Z,9Z,28Z,31Z)-heptatriaconta-6,9,28,31-tetraen-19-yl)carbonate] | 80.4 | 85 | 17 | 74.5 | 100
4 | CCCCC/C=C\C/C=C\CCCCCCCCC(CCCCCCCC/C=C\C/C=C\CCCCC)OC(=O)OCCN(CCCC)CCN(C)C [Example 38, 2-(Butyl(2-(dimethylamino)ethyl)amino)ethyl((6Z,9Z,28Z,31Z)-heptatriaconta-6,9,28,31-tetraen-19-yl)carbonate] | 94.2 | 87 | 16 | 67.9 | 100
5 | CCCCC/C=C\C/C=C\CCCCCCCCC(CCCCCCCC/C=C\C/C=C\CCCCC)OC(=O)OCCN(CCN(CC)CC)C(C)C [Example 42, 2-((2-(Diethylamino)ethyl)(isopropyl)amino)ethyl((6Z,9Z,28Z,31Z)-heptatriaconta-6,9,28,31-tetraen-19-yl)carbonate] | 70 | 78 | 9 | 68.1 | 70
6 | CCCCCCC(CCCCCC)C(=O)OCCCCCCC(CCCCCCOC(=O)C(CCCCCC)CCCCCC)OC(=O)OCCN(CC)CCN(CC)CC [Example 77, 7-(((2-((2-(Diethylamino)ethyl)(ethyl)amino)ethoxy)carbonyl)oxy)tridecane-1,13-diylbis(2-hexyloctanoate)] | 81.9 | 88 | 3 | 81.2 | 76
7 | CCCCCCCCC(CCCCCC)COC(=O)CCCC(CCCCCC)OC(=O)OCCN(CCN(CC)CC)C(C)C (stereo not drawn) [Example 83, 2-Hexyldecyl 3-ethyl-12-hexyl-6-isopropyl-10-oxo-9,11-dioxa-3,6-diazahexadecan-16-oate] | 83.6 | 82 | 13 | 85.4 | 88
8 | CCCCCCCCCCCC(=O)OCCN(CCOC(=O)OC(CCCCCC)CCCCCCCCC(=O)OCC(CCCC)CCCCCC)CCN(CC)CC (stereo not drawn) [Example 86, 2-butyloctyl 6-(2-(dodecanoyloxy)ethyl)-3-ethyl-12-hexyl-10-oxo-9,11-dioxa-3,6-diazahenicosan-21-oate] | 67.1 | 74 | 15 | 69.2 | 88
9 | CCCCCCCCC(CCCCCC)COC(=O)CCCCCCCCC(CCCCCC)OC(=O)OCCN(CCN(CC)CC)C(C)C (stereo not drawn) [Example 89, 2-Hexyldecyl 3-ethyl-12-hexyl-6-isopropyl-10-oxo-9,11-dioxa-3,6-diazahenicosan-21-oate] | 68.2 | 83 | 8 | 77.3 | 94
10 | CCCCCCCC/C=C\CCCCCCCC(=O)OCCN(CCOC(=O)OC(CCCCCC)CCCCCCCCC(=O)OCC(CCCC)CCCCCC)CCN(CC)CC (stereo not drawn) [Example 91, 2-Butyloctyl 3-ethyl-12-hexyl-6-(2-(oleoyloxy)ethyl)-10-oxo-9,11-dioxa-3,6-diazahenicosan-21-oate] | 75.0 | 69 | 9 | 66.5 | 76
11 | CCCCCCCCCC(=O)OCCN(CCOC(=O)OC(CCCCCC)CCCCCCCCC(=O)OCC(CCCCCC)CCCCCCCC)CCN(CC)CC (stereo not drawn) [Example 98, 2-Hexyldecyl 6-(2-(decanoyloxy)ethyl)-3-ethyl-12-hexyl-10-oxo-9,11-dioxa-3,6-diazahenicosan-21-oate] | 74.9 | 82 | 2 | 68.3 | 76
12 | CCCCCCCCC(CCCCCC)COC(=O)CCCCCCCCC(CCCCCC)OC(=O)OCCN(CCOC(=O)CCCCCCC)CCN(CC)CC (stereo not drawn) [Example 99, 2-Hexyldecyl 3-ethyl-12-hexyl-6-(2-(octanoyloxy)ethyl)-10-oxo-9,11-dioxa-3,6-diazahenicosan-21-oate] | 68.9 | 81 | 3 | 72.3 | 79
